From US20040029254A1, “Method of screening anti-bacterial agents for effectiveness in treating persistant intracellular infections” (University of Washington, priority 2002, published 2004)
≈ marks a conversion by molar mass, not a printed value.

Columns and labels:
Format in all cases: cell-based
[1] = system: clinical isolates of C. trachomatis; experiment: microbe, parasite or virus in culture
[2] = system: C. suis R-19 (porcine strain); settings: McCoy cells; for MCC (microtiter): one freeze-thaw passage in microtiter plates; for MCC1 (shell vial): one passage in shell vials; for MCC3 (shell vial): three passages in shell vials; for MIC (microtiter): tetracycline-resistant strain
[3] = system: C. trachomatis B,D,E,F,G,H,I,Ia,J,K (human genital serovars); experiment: Anti-bacterial susceptibilities of reference strains
[4] = system: C. trachomatis MoPn (mouse pneumonitis strain); experiment: as above
[5] = system: C. trachomatis L2 (LGV serovar); experiment: as above

Compound	MCC1 [1] [µg/mL]	MCC3 [1] [µg/mL]	MCC (microtiter) [2] [µg/mL]	MCC1 (shell vial) [2] [µg/mL]	MCC3 (shell vial) [2] [µg/mL]	MCC1 (shell vial) [3] [µg/mL]	MCC3 (shell vial) [3] [µg/mL]	MCC (microtiter) [3] [µg/mL]	MCC1 (shell vial) [4] [µg/mL]	MCC3 (shell vial) [4] [µg/mL]	MCC (microtiter) [4] [µg/mL]	MCC1 (shell vial) [5] [µg/mL]	MCC3 (shell vial) [5] [µg/mL]	MCC (microtiter) [5] [µg/mL]	MIC (microtiter) [2] [mg/L]
CCCN1CCN(c2cc(O)c3nc4c5c6c7c(C)c(O)c5c(=O)c(c-4oc3c2)NC(=O)/C(C)=C\C=C\[C@H](C)[C@H](O)[C@@H](C)[C@@H](O)[C@@H](C)[C@H](OC(C)=O)[C@H](C)[C@@H](OC)/C=C/O[C@@](C)(O7)C6=O)CC1 [KRM-1657]	0.0005 to 0.001	0.001 to 0.002													
CO[C@H]1/C=C/O[C@@]2(C)Oc3c(C)c(O)c4c(=O)c(c5oc6cc(N7CCN(CC(C)C)CC7)cc(O)c6nc-5c4c3C2=O)NC(=O)/C(C)=C\C=C\[C@H](C)[C@H](O)[C@@H](C)[C@@H](O)[C@@H](C)[C@H](OC(C)=O)[C@@H]1C [Rifalazil, rifalazil]	0.001 to 0.002	0.004 to 0.008													
CC[C@H]1OC(=O)[C@H](C)[C@@H](O[C@H]2C[C@@](C)(OC)[C@@H](O)[C@H](C)O2)[C@H](C)[C@@H](O[C@@H]2O[C@H](C)C[C@H](N(C)C)[C@H]2O)[C@](C)(O)C[C@@H](C)CN(C)[C@H](C)[C@@H](O)[C@]1(C)O [Azithromycin, azithromycin]	4 to 8	32 to 64	0.25	>8	>128	>8	64	0.25	>8	128	0.5	>8	64	0.25	
CC1COc2c(N3CCN(C)CC3)c(F)cc3c(=O)c(C(=O)O)cn1c23 (stereo not drawn) [Ofloxacin, ofloxacin]	8 to 16	>128	1.0	>8	>128	>8	>128	1.0	>8	>128	1.0	>8	>128	1.0	0.5 (≈ 1.38 µM)
C[C@H]1c2cccc(O)c2C(=O)C2=C(O)[C@]3(O)C(=O)C(C(N)=O)=C(O)[C@@H](N(C)C)[C@@H]3[C@@H](O)[C@@H]21 [Doxycycline, doxycycline]	4 to 8	32 to 64	2.0	>8	>128	>8	16 to 32	0.125	>8	64	0.5	>8	32	0.125	1.0 (≈ 2.25 µM)
